Like-named read-outs stand apart in the source and are kept apart here.
Tests used:
[1] = molecular target: T1, human somatostatin receptor subtype 2 (Homo sapiens, UniProt P30874); assay: cAMP assay for SST2R (inhibition of cAMP in CHO-K1 cells); assay type: cell-based; settings: Table B; inhibition of cAMP via human SST2 receptor; read-out: SST2 potency
T1 construct: expressed in transfected cells
Excerpt: General overview: All five SSTR subtypes are Gi coupled G-protein coupled receptors (GPCRs) that lead to decreases in intracellular cyclic AMP (cAMP) when activated by an agonist. Therefore, measurement of intracellular cAMP levels can be used to assess whether compounds of the invention are agonists of SSTR subtypes (John Kelly, Troy Stevens, W. Joseph Thompson, and Roland Seifert, Current Protocols in Pharmacology, 2005, 2.2.1-2.2). One example of an intracellular cAMP assay is described below.
cAMP Assay Protocol for SST2R:
Four days prior to the assay, 5,000 Chinese hamster ovary cells (CHO-K1, ATCC #CCL-61) stably expressing the human somatostatin receptor subtype 2 are plated in each well of a 96-well tissue culture-treated plate in Ham's F12 growth media (ThermoFisher #10-080-CM) supplemented with 10% donor bovine serum (Gemini Bio-Products #100-506), 100 U/mL penicillin; 100 μg/mL streptomycin; 2 mM L-glutamine (Gemini Bio-Products #400-110) and 0.2 mg/mL hygromycin B (GoldBio #31282-04-9). The cells are cultured at 37° C., 5% CO2 and 95% humidity. On the day of the assay, the media is aspirated and the cells are treated with 50 μL of 1.6 μM NKH477 (Sigma #N3290) plus various dilutions of compounds of the invention in assay buffer [1× Hank's Balanced Salt Solution (ThermoFisher #SH3058802), 0.5 mM HEPES pH 7.4, 0.1% bovine serum albumin, 0.2 mM 3-Isobutyl-1-methylxanthine (IBMX, VWR #200002-790)]. The cells are incubated for 20 minutes at 37° C. […] The cells are treated with 50 μL of lysis buffer (HRTF cAMP kit, Cisbio). The lysate is transferred to 384-well plates and cAMP detection and visualization antibodies are added and incubated for 1-24 hours at room temperature. The time-resolved fluorescent signal is read with a Tecan M1000Pro multiplate reader. The intracellular cAMP concentrations are calculated by regression to a standard curve and are plotted vs. the concentration of the compounds of the invention and the EC50 of the compounds are calculated using standard methods. All data manipulations are in GraphPad Prism v6 or v7.

[2] = molecular target: T2, human somatostatin receptor subtype 5 (Homo sapiens, UniProt P35346); assay: cAMP assay for SST5R (inhibition of cAMP in CHO-K1 cells); assay type: cell-based; settings: for EC50: inhibition of cAMP via human SST5 receptor, read-out: SST5 potency; for Fold selectivity for SST5 vs SST2: class symbols, SST5 receptor over SST2 receptor
T2 construct: expressed in transfected cells
T2 sequence (P35346 whole entry): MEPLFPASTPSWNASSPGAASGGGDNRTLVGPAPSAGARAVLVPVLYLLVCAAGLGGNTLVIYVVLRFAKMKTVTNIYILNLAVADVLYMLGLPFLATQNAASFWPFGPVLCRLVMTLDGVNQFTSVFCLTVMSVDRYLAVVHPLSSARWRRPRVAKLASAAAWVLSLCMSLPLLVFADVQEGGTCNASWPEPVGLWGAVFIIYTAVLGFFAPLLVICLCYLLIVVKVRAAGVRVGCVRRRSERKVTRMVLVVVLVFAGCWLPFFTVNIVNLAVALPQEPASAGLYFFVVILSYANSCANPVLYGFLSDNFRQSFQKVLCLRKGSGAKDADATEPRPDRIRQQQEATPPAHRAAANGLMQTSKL
How it was run: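 CHO-K1 cells stably expressing human SSTR5 were treated 20 min at 37 °C with compounds plus 1.6 μM NKH477 in HBSS, 0.5 mM HEPES pH 7.4, 0.1% BSA, 0.2 mM IBMX. Lysate cAMP measured by HTRF against a standard curve; EC50 from cAMP-versus-concentration plots.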

T1 sequence (P30874 whole entry): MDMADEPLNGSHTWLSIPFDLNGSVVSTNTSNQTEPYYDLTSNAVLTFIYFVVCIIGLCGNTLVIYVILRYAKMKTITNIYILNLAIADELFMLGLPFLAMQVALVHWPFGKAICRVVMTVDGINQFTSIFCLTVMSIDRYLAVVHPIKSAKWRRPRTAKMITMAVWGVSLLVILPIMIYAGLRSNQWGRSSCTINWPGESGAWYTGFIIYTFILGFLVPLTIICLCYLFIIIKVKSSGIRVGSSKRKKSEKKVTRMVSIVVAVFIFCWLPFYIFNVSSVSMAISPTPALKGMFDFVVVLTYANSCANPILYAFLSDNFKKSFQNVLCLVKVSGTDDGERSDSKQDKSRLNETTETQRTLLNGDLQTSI

EC50 [1] [µM] | EC50 ([2]; Table A) [µM] | Fold selectivity for SST5 vs SST2 ([2]; Table B) | EC50 ([2]; Table B) [µM] | Compound
> 1 | < 0.01 | +++ (+++=>500) | < 0.01 | N#Cc1ncc(C(=O)NC23CC(C2)C3)c(N2CC[C@H](N)C2)c1-c1ccc(F)c(F)c1 [1-66, 4-[(3S)-3-aminopyrrolidin-1-yl]-N-{bicyclo[1.1.1]pentan-1-yl}-6-cyano-5-(3,4-difluorophenyl)pyridine-3-carboxamide]
> 1 | < 0.01 | +++ (+++=>500) | < 0.01 | N[C@H]1CCN(c2c(C(=O)NC(C3CC3)C3CC3)cncc2-c2cc(F)cc(Cl)c2)C1 [1-61, 4-[(3S)-3-aminopyrrolidin-1-yl]-5-(3-chloro-5-fluorophenyl)-N-(dicyclopropylmethyl)pyridine-3-carboxamide]
> 1 | < 0.01 | +++ (+++=>500) | < 0.01 | Cc1ncc(C(=O)NCc2ccon2)c(N2CC[C@](C)(N)C2)c1-c1cc(F)cc(Cl)c1 [1-242, 4-[(3S)-3-amino-3-methylpyrrolidin-1-yl]-5-(3-chloro-5-fluorophenyl)-6-methyl-N-[(1,2-oxazol-3-yl)methyl]pyridine-3-carboxamide]
0.1 to 1 | < 0.01 | +++ (+++=>500) | < 0.01 | COc1ncc(C(=O)NC23CC(F)(C2)C3)c(N2CC[C@H](N)C2)c1-c1cc(F)cc(Cl)c1 [1-286, 4-[(3S)-3-aminopyrrolidin-1-yl]-5-(3-chloro-5-fluorophenyl)-N-{3-fluorobicyclo[1.1.1]pentan-1-yl}-6-methoxypyridine-3-carboxamide]
0.1 to 1 | < 0.01 | ++ (++=100 to 499) | < 0.01 | N#Cc1ncc(C(=O)NC23CC(C2)C3)c(N2CC[C@@](N)(CO)C2)c1-c1cc(F)cc(F)c1 [1-98, 4-[(3S)-3-amino-3-(hydroxymethyl)pyrrolidin-1-yl]-N-{bicyclo[1.1.1]pentan-1-yl}-6-cyano-5-(3,5-difluorophenyl)pyridine-3-carboxamide]

The next lines start with the compound.

Compound | EC50 [1] [µM] | EC50 ([2]; Table A) [µM] | Fold selectivity for SST5 vs SST2 ([2]; Table B) | EC50 ([2]; Table B) [µM]
Cc1cc(C)cc(-c2cncc(C(=O)NC3CCC(F)(F)CC3)c2N2CC[C@](C)(N)C2)c1 [1-12, 4-[(3S)-3-amino-3-methylpyrrolidin-1-yl]-N-(4,4-difluorocyclohexyl)-5-(3,5-dimethylphenyl)pyridine-3-carboxamide] | 0.1 to 1 | < 0.01 | +++ (+++=>500) | < 0.01
COc1ncc(C(=O)N[C@@H](C)C(F)(F)F)c(N2CC[C@](C)(N)C2)c1-c1cc(F)cc(Cl)c1 [1-228, 4-[(3S)-3-amino-3-methylpyrrolidin-1-yl]-5-(3-chloro-5-fluorophenyl)-6-methoxy-N-[(2S)-1,1,1-trifluoropropan-2-yl]pyridine-3-carboxamide] | 0.01 to 0.1 | < 0.01 | +++ (+++=>500) | < 0.01
C[C@H](NC(=O)c1cnc(C#N)c(-c2ccn(C)n2)c1N1CC[C@](C)(N)C1)C1CC1 [1-121, 4-[(3S)-3-amino-3-methylpyrrolidin-1-yl]-6-cyano-N-[(1S)-1-cyclopropylethyl]-5-(1-methyl-1H-pyrazol-3-yl)pyridine-3-carboxamide] | > 1 | < 0.01 | +++ (+++=>500) | < 0.01
C[C@]1(N)CCN(c2c(C(=O)NC34CC(F)(C3)C4)cnc(C#N)c2-c2cc(F)cc(F)c2)C1 [1-234, 4-[(3S)-3-amino-3-methylpyrrolidin-1-yl]-6-cyano-5-(3,5-difluorophenyl)-N-{3-fluorobicyclo[1.1.1]pentan-1-yl}pyridine-3-carboxamide] | 0.1 to 1 | < 0.01 | +++ (+++=>500) | < 0.01
Cc1cc(F)cc(-c2cncc(C(=O)NC(C3CC3)C3CC3)c2N2CC[C@](C)(N)C2)c1 [1-25, 4-[(3S)-3-amino-3-methylpyrrolidin-1-yl]-N-(dicyclopropylmethyl)-5-(3-fluoro-5-methylphenyl)pyridine-3-carboxamide] | 0.1 to 1 | < 0.01 | +++ (+++=>500) | < 0.01
Cc1cccc2[nH]c(-c3cncc(C(=O)N4CC[C@H]5CCCC54)c3N3CC[C@](C)(N)C3)nc12 (stereo partly drawn) [2-37, (3S)-1-{3-[(3aR)-octahydrocyclopenta[b]pyrrole-1-carbonyl]-5-(4-methyl-1H-1,3-benzodiazol-2-yl)pyridin-4-yl}-3-methylpyrrolidin-3-amine] | 0.1 to 1 | < 0.01 | ++ (++=100 to 499) | < 0.01
CC1(C)CC(NC(=O)c2cnc(C#N)c(-c3cc(F)cc(F)c3)c2N2CC[C@](C)(N)C2)CCO1 (stereo partly drawn) [1-113, 4-[(3S)-3-amino-3-methylpyrrolidin-1-yl]-6-cyano-5-(3,5-difluorophenyl)-N-(2,2-dimethyloxan-4-yl)pyridine-3-carboxamide] | > 1 | < 0.01 | +++ (+++=>500) | < 0.01
C[C@H](NC(=O)c1cnc(C#N)c(-c2cc(F)cc(F)c2)c1N1CC[C@H](N)C1)C(F)(F)F [1-71, 4-[(3S)-3-aminopyrrolidin-1-yl]-6-cyano-5-(3,5-difluorophenyl)-N-[(2S)-1,1,1-trifluoropropan-2-yl]pyridine-3-carboxamide] | 0.1 to 1 | < 0.01 | +++ (+++=>500) | < 0.01
CC(NC(=O)c1cnc(C#N)c(-c2cc(F)cc(F)c2)c1N1CC[C@H](N)C1)C(F)(F)F (stereo partly drawn) [1-226, 4-[(3S)-3-aminopyrrolidin-1-yl]-6-cyano-5-(3,5-difluorophenyl)-N-(1,1,1-trifluoropropan-2-yl)pyridine-3-carboxamide] | 0.1 to 1 | < 0.01 | ++ (++=100 to 499) | < 0.01
C[C@]1(N)CCN(c2c(C(=O)NC3CCCC3)cnc(C#N)c2-c2cc(F)cc(F)c2)C1 [1-78, 4-[(3S)-3-amino-3-methylpyrrolidin-1-yl]-6-cyano-N-cyclopentyl-5-(3,5-difluorophenyl)pyridine-3-carboxamide] | 0.01 to 0.1 | < 0.01 | +++ (+++=>500) | < 0.01
C[C@H](NC(=O)c1cnc(C#N)c(-c2cccc(OC(F)F)c2)c1N1CC[C@](C)(N)C1)C1CC1 [1-120, 4-[(3S)-3-amino-3-methylpyrrolidin-1-yl]-6-cyano-N-[(1S)-1-cyclopropylethyl]-5-[3-(difluoromethoxy)phenyl]pyridine-3-carboxamide] | 0.01 to 0.1 | < 0.01 | +++ (+++=>500) | < 0.01
Cc1ncc(C(=O)NC2CCC(F)(F)CC2)c(N2CC[C@](C)(N)C2)c1-c1cc(F)cc(F)c1 [1-181, 4-[(3S)-3-amino-3-methylpyrrolidin-1-yl]-N-(4,4-difluorocyclohexyl)-5-(3,5-difluorophenyl)-6-methylpyridine-3-carboxamide] | 0.1 to 1 | < 0.01 | +++ (+++=>500) | < 0.01

— patent publication US12600709B2, “Nonpeptide somatostatin type 5 receptor agonists and uses thereof” (Crinetics Pharmaceuticals, Inc., priority 2019, dated 2026)
